Laboratory results from patent US9981940B2, “Aryl sulfide derivatives and aryl sulfoxide derivatives as acaricides and insecticides” (BAYER CROPSCIENCE AKTIENGESELLSCHAFT, priority 2013, dated 2018).

Key:
Tetranychus urticae = Tetranychus urticae spray test, OP-resistant (TETRUR); assay type: in vivo; conditions: after 6 days; for pest or weed control at 500 g/ha: Tetranychus urticae, 144 h, read-out: efficacy
In short: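 Bean leaf discs infested with all stages of an OP-resistant Tetranychus urticae strain sprayed with compound in acetone/DMF with alkylaryl polyglycol ether emulsifier, diluted in water. Efficacy in % scored after 6 days; 100% means all mites killed.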

[1] = log P by HPLC (OECD Guideline 117), method [b] neutral range; assay type: physicochemical; conditions: HPLC; for logP[b]: method [b] neutral range; for chromatographic logP: reversed-phase C18 HPLC column
Experimental: (§1) The log P values were determined analogously to OECD Guideline 117 (EC Directive 92/69/EEC) by HPLC (high-performance liquid chromatography) using reversed-phase columns (C 18), by the following methods:
[b] The LC-MS determination in the neutral range is effected at pH 7.8 with 0.001 molar aqueous ammonium hydrogencarbonate solution and acetonitrile as eluents; linear gradient from 10% acetonitrile to 95% acetonitrile.

[2] = log P by HPLC (OECD Guideline 117), method [a] acidic range; assay type: physicochemical; conditions: for logP[a]: method [a] acidic range; for chromatographic logP: reversed-phase C18 HPLC column
Experimental: as §1
[a] The LC-MS determination in the acidic range is effected at pH 2.7 with 0.1% aqueous formic acid and acetonitrile (contains 0.1% formic acid) as eluents; linear gradient from 10% acetonitrile to 95% acetonitrile.

[3] = pH 2.7, HPLC method [a], acidic range, read-out: logP[a]
[4] = pH 2.7, HPLC, acidic range, pH 2.7, read-out: log P[a]

Structure (SMILES)	efficacy (Tetranychus urticae; application rate of 500 g/ha) [%]	logP[b] [1]	logP[a] ([2]; HPLC)	other results
Cc1cc(F)c(-n2nc(SC(C)C)n(C)c2=O)cc1[S+]([O-])CC(F)(F)F (stereo not drawn) [Example 275]	100	2.68	2.73	–
C=CCn1c(C(F)(F)F)nn(-c2cc([S+]([O-])CC(F)(F)F)c(C)cc2F)c1=O (stereo not drawn) [Example 364]	90	2.96	3.00	–
COC1=CC(=O)N(c2cc(SCC(F)(F)F)c(C)cc2F)C1 [Example 310, 1-{2-Fluoro-4-methyl-5-[(2,2,2-trifluoroethyl)sulphanyl]phenyl}-4-methoxy-1,5-dihydro-2H-pyrrol-2-one]	–	–	–	pest or weed control at 500 g/ha (Tetranychus urticae; application rate of 500 g/ha): 100%; chromatographic logP ([1]; neutral range, pH 7.8): 2.81; chromatographic logP [2, 3]: 2.87; chromatographic logP [2, 4]: 2.87
Cc1cc(C)c([S+]([O-])CC(F)(F)F)cc1-n1nnn(C(C)C)c1=O (racemic) [Example 300]	100	2.61	2.63	–
CCn1ccn(-c2cc([S+]([O-])CC(F)(F)F)c(C)cc2F)c1=O (stereo not drawn) [Example 487, 1-Ethyl-3-{2-fluoro-4-methyl-5-[(2,2,2-trifluoroethyl)sulphinyl]phenyl}-1,3-dihydro-2H-imidazol-2-one]	–	–	–	pest or weed control at 500 g/ha (Tetranychus urticae; application rate of 500 g/ha): 90%; chromatographic logP ([1]; neutral range, pH 7.8): 1.81; chromatographic logP [2, 3]: 1.83; chromatographic logP [2, 4]: 1.83
CCCCOc1nn(-c2cc([S+]([O-])CC(F)(F)F)c(C)cc2F)c(=O)n1C1CC1 (stereo not drawn) [Example 124]	–	3.20	3.24	efficacy (Tetranychus urticae; application rate of 100 g/ha): 90%
Cc1cc(F)c(-n2nc(-c3ccncc3)oc2=O)cc1SCC(F)(F)F [Example 459]	90	3.20	3.20	–
Cc1cc(F)c(-n2nc(NC(C)C)n(N)c2=O)cc1SCC(F)(F)F [Example 224]	90	2.71	2.74	–
CCCCc1nn(-c2cc(SCC(F)(F)F)c(C)cc2F)c(=O)n1C1CC1 [Example 71]	90	3.96	4.05	–
Cc1cc(F)c(-n2nc(C(C)C)n(N)c2=O)cc1[S+]([O-])CC(F)(F)F (stereo not drawn) [Example 204]	100	1.95	1.96	–
CC1=C(C)C(=O)N(c2cc(SCC(F)(F)F)c(C)cc2C)C1=O [Example 342]	90	3.70	3.73	log P[b] ([1]; neutral range, pH 7.8): 3.67; log P[a] ([2]; HPLC, acidic range, pH 2.7): 2.07
CCOc1nn(-c2cc(SCC(F)(F)F)c(C)cc2F)c(=O)n1C1CC1 [Example 120]	100	3.44	3.58	–
Cc1cc(F)c(-n2nc(Br)n(Cc3ccccc3)c2=O)cc1SCC(F)(F)F [Example 440]	100	4.13	4.18	–
Cc1cc(F)c(-n2nc(S(C)(=O)=O)n(C)c2=O)cc1SCC(F)(F)F [Example 420, 2-{2-Fluoro-4-methyl-5-[(2,2,2-trifluoroethyl)sulphanyl]phenyl}-4-methyl-5-(methylsulphonyl)-2,4-dihydro-3H-1,2,4-triazol-3-one]	–	–	–	pest or weed control at 500 g/ha (Tetranychus urticae; application rate of 500 g/ha): 90%; chromatographic logP ([1]; neutral range, pH 7.8): 2.77; chromatographic logP [2, 3]: 2.7; chromatographic logP [2, 4]: 2.7
Cc1cc(C)c([S+]([O-])CC(F)(F)F)cc1-n1ncn(Cc2ccccc2)c1=O (stereo not drawn) [Example 374]	90	2.47	2.50	–
COc1cc(F)c(-n2nc(OCC(C)(C)C)n(C3CC3)c2=O)cc1[S+]([O-])CC(F)(F)F (stereo not drawn) [Example 403]	100	3.44	3.50	–
Cc1cc(F)c(-n2nc([S+](C)[O-])n(C3CC3)c2=O)cc1SCC(F)(F)F (stereo not drawn) [Example 230]	100	2.40	2.45	–
CCn1c(C(F)(F)F)nn(-c2cc(SCC(F)(F)F)c(C)cc2Cl)c1=O [Example 50]	100	4.07	4.14	–

Structure (SMILES)	efficacy (Tetranychus urticae; application rate of 500 g/ha) [%]	logP[b] [1]	logP[a] ([2]; HPLC)	other results
C=CCn1c(SCC)nn(-c2cc(SCC(F)(F)F)c(C)cc2F)c1=O [Example 428]	100	3.96	4.03	–
CCCSc1nn(-c2cc([S+]([O-])CC(F)(F)F)c(C)cc2F)c(=O)n1C1CC1 (stereo not drawn) [Example 266]	100	3.17	3.24	–
Cc1cc(F)c(-n2nc(SCC(F)F)n(C3CC3)c2=O)cc1[S+]([O-])CC(F)(F)F (stereo not drawn) [Example 256]	90	2.69	2.73	–
Cc1cc(F)c(-n2nc(CC(C)C)n(C3CC3)c2=O)cc1[S+]([O-])CC(F)(F)F (racemic) [Example 84]	100	2.80	2.86	–
Cc1cc(F)c(-n2nc(C3CC3)n(N(C)C)c2=O)cc1[S+]([O-])CC(F)(F)F (stereo not drawn) [Example 197, 5-Cyclopropyl-4-(dimethylamino)-2-{2-fluoro-4-methyl-5-[(2,2,2-trifluoroethyl)sulphinyl]phenyl}-2,4-dihydro-3H-1,2,4-triazol-3-one]	–	–	–	pest or weed control at 500 g/ha (Tetranychus urticae; application rate of 500 g/ha): 100%; chromatographic logP ([1]; neutral range, pH 7.8): 2.59; chromatographic logP [2, 3]: 2.6; chromatographic logP [2, 4]: 2.6
Cc1cc(F)c(-n2nc(C3CC3)n(C)c2=O)cc1SCC(F)(F)F [Example 346]	90	2.92	2.97	–
Cc1ccc(-n2nc(C(F)(F)F)n(N)c2=O)cc1SCC(F)(F)F [Example 212]	90	3.37	3.38	–
Cc1cc(F)c(-n2nc(SC(C)C)n(C)c2=O)cc1SCC(F)(F)F [Example 276]	100	3.80	3.86	–
COc1nn(-c2cc([S+]([O-])CC(F)(F)F)c(F)cc2F)c(=O)n1C (stereo not drawn) [Example 169]	90	1.77	1.81	–
CCCc1nn(-c2cc(SCC(F)(F)F)c(C)cc2F)c(=O)o1 [Example 460]	100	3.92	3.94	–
Cc1cc(F)c(-n2nc(C)n(N(C)C)c2=O)cc1[S+]([O-])CC(F)(F)F (stereo not drawn) [Example 210]	100	2.09	2.09	–
CCCCOc1nn(-c2cc(SCC(F)(F)F)c(C)cc2F)c(=O)n1C1CC1 [Example 125]	90	4.35	4.41	–
Cc1cc(F)c(-n2nc(CCOC(C)C)n(C3CC3)c2=O)cc1[S+]([O-])CC(F)(F)F (stereo not drawn) [Example 362]	90	2.61	2.63	–
Cc1cc(F)c(-n2nc([S+]([O-])C(C)C)n(C3CC3)c2=O)cc1SCC(F)(F)F (stereo not drawn) [Example 238]	100	2.92	2.99	–
COCCn1c(C(F)(F)F)nn(-c2cc(SCC(F)(F)F)c(C)cc2F)c1=O [Example 89]	100	3.73	3.80	–
Cc1cc(F)c(-n2nc(SCC(F)(F)F)n(C3CC3)c2=O)cc1[S+]([O-])CC(F)(F)F (stereo not drawn) [Example 255]	100	2.89	2.93	–
COn1c(C)nn(-c2cc([S+]([O-])CC(F)(F)F)c(C)cc2F)c1=O (stereo not drawn) [Example 226]	100	1.74	1.76	–
CCSc1nn(-c2cc([S+]([O-])CC(F)(F)F)c(C)cc2F)c(=O)n1CC (racemic) [Example 293]	90	2.72	2.76	–
